Measurements: patent US8980920B2, “Antiviral compounds of three linked aryl moieties to treat diseases such as hepatitis C” (Merck Sharp & Dohme Corp., priority 2009, dated 2015)

What was measured:
HCV replicon 1b c16 = assay: Cell-based HCV replicon assay, genotype 1b c16; settings: Hepatitis C virus, 72 h; replicon cells, genotype 1b c16, replicon RNA by Taqman on day 3
Procedure: (§1) To measure cell-based anti-HCV activity of selected compounds of the present invention, the following replicon assay can be used.
Replicon cells are seeded at 5000 cells/well in 96-well collagen I-coated Nunc plates in the presence of the test compound. Various concentrations of test compound, typically in 10 serial 2-fold dilutions, are added to the assay mixture, with the starting concentration ranging from 10 μM to 0.001 μM. The final concentration of DMSO should be about 0.5%, and the final concentration of fetal bovine serum should be about 5%, in the assay media. Cells are harvested on day 3 by the addition of 1× cell lysis buffer (Ambion cat #8721). The replicon RNA level is then measured (using, for example, the real time PCR (Taqman assay)). The amplicon is located in 5B. The PCR primers are: 5B.2F, ATGGACAGGCGCCCTGA (SEQ ID NO. 1); 5B.2R, […] (SEQ ID NO. 2); the probe sequence is FAM-labeled CACGCCATGCGCTGCGG (SEQ ID NO. 3). GAPDH RNA is to be used as endogenous control and is amplified in the same reaction as NS5B (multiplex PCR) using the primers and the VIC-labeled probe recommended by the manufacturer (PE Applied Biosystems). The real-time RT-PCR reactions can be run on an ABI PRISM 7900HT Sequence Detection System using the following program: 48° C. for 30 minutes, 95° C. for 10 minutes, 40 cycles of 95° C. for 15 sec, 60° C. for 1 minute. The ΔCT values (CT5B-CTGAPDH) are then plotted against the concentration of test compound and fitted to the sigmoid dose-response model using XLfit4 (MDL). EC50 is defined as the concentration of inhibitor necessary to achieve ΔCT=1 over the projected baseline; EC90 is defined as the concentration necessary to achieve ΔCT=3.2 over the baseline. Alternatively, to quantitate the absolute amount of replicon RNA, a standard curve can be established by including serially diluted T7 transcripts of replicon RNA in the Taqman assay. […]
(§2) HCV replicon assay data was calculated for various genotypes for selected compounds of the present invention using this method and is provided in the table below.

HCV replicon 1a 1A7 = assay: Cell-based HCV replicon assay, genotype 1a 1A7; settings: Hepatitis C virus, 72 h; replicon cells, genotype 1a 1A7, replicon RNA by Taqman on day 3
Procedure: as §1
(§3) Replicon cells are seeded at 5000 cells/well in 96-well collagen I-coated Nunc plates in the presence of the test compound. Various concentrations of test compound, typically in 10 serial 2-fold dilutions, are added to the assay mixture, with the starting concentration ranging from 10 μM to 0.001 μM. The final concentration of DMSO should be about 0.5%, and the final concentration of fetal bovine serum should be about 5%, in the assay media. Cells are harvested on day 3 by the addition of 1× cell lysis buffer (Ambion cat #8721). The replicon RNA level is then measured (using, for example, the real time PCR (Taqman assay)). The amplicon is located in 5B. The PCR primers are: 5B.2F, ATGGACAGGCGCCCTGA (SEQ ID NO. 1); 5B.2R, […] (SEQ ID NO. 2); the probe sequence is FAM-labeled CACGCCATGCGCTGCGG (SEQ ID NO. 3). […] Alternatively, to quantitate the absolute amount of replicon RNA, a standard curve can be established by including serially diluted T7 transcripts of replicon RNA in the Taqman assay. […]
as §2

HCV replicon 2a JFH = assay: Cell-based HCV replicon assay, genotype 2a JFH; settings: Hepatitis C virus, 72 h, replicon cells, replicon RNA by Taqman on day 3
Procedure: as §1, §3, §2

HCV replicon 1b Y93H = assay: Cell-based HCV replicon assay, genotype 1b Y93H; settings: Hepatitis C virus, 72 h, read-out: EC50 1b Y93H
Procedure: as §1, §3, §2

CC(C)(C)OC(=O)N1CCC[C@H]1c1ncc(-c2ccc(C#Cc3ccc4nc([C@@H]5CCCN5C(=O)OC(C)(C)C)[nH]c4c3)cc2)[nH]1 [Compound 58] showed an EC50 (HCV replicon 1b c16) of 251 nM.

COC(=O)N[C@H](C(=O)N1CCC[C@@H]1c1ncc(-c2ccc(C#Cc3ccc4nc([C@@H]5CCCN5C(=O)[C@@H](NC(=O)OC)C(C)C)[nH]c4c3)cc2)[nH]1)C(C)C [Compound 56] showed an EC50 (HCV replicon 1a 1A7) of 0.3 nM, an EC50 (HCV replicon 1b c16) of 0.016 nM and an EC50 (HCV replicon 2a JFH) of 0.3 nM. The EC50 (HCV replicon 1b Y93H) was 5 nM.

Compound COC(=O)N[C@@H](C(=O)N1CCC[C@@H]1c1ncc(-c2ccc(C#Cc3ccc4nc([C@@H]5CCCN5C(=O)[C@H](NC(=O)OC)c5ccccc5)[nH]c4c3)cc2)[nH]1)c1ccccc1 [Compound 57] has an EC50 (HCV replicon 1a 1A7) of 0.41 nM, an EC50 (HCV replicon 1b c16) of 0.001 nM and an EC50 (HCV replicon 2a JFH) of 0.019 nM. For the same compound, the EC50 (HCV replicon 1b Y93H) was 0.5 nM.
